In patent US20230310388A1, “Methods and Compositions for Treating Fungal Infections” (Neoculi Pty Ltd, priority 2020, published 2023):
Values after ≈ are worked out from the molar mass of the structure shown. Values joined by “and” are separate entries in the source; they are usually repeats but may differ in a detail not shown here. Identical values can stand only once. Like-named read-outs stand apart in the source and are kept apart here.

Key:
Type in all cases: cell-based
[1] = system: Candida albicans; assay: CLSI broth microdilution MIC (Example 6)
Outline: (§1)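 CLSI broth microdilution in RPMI 1640, compounds serially double-diluted, inoculum about 2×10^3 cells/mL. Incubation at 35° C for 24-48 hours. MICs determined per isolate in duplicate, with a third repeat if values differed.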

[2] = system: Cryptococcus neoformans; assay: CLSI broth microdilution MIC (Example 6)
Outline: as §1

[3] = system: Malassezia pachydermatis; assay: MIC, mSAB broth microdilution (Example 1); conditions: for activity against all 13 isolates of Malassezia pachydermatis: summary in words
Source text: There is no recommended Clinical & Laboratory Standards Institute (CLSI) standard for M. pachydermatis. In the literature there are a number of papers which have developed Minimum Inhibitory Concentration (MIC) methodology for Malassezia species isolated from both humans and animals (ie both lipophilic and non-lipophilic species). In all papers, the methodology has been altered from the original CLSI protocols in order to overcome four main problem areas involved in testing this yeast. • 1) Finding a suitable growth medium for Malassezia, especially the lipophilic species. […] When testing the azole group of anti-fungal agents, there is also the well known trailing end point problem with MIC determination. Trailing occurs when the turbidity continually decreases as the drug concentration increases but the suspension fails to become optically clear (partial inhibition of growth over an extended range of antifungal concentrations). The following method was originally developed by Eichenberg et al. (2003) (mSAB broth microdilution method). The mSAB method was devised to follow as closely as possible the CLSI guidelines whilst still allowing for the distinct biochemical and growth requirements of M. pachydermatis. Sabouraud dextrose broth with 1% Tween 80 was chosen as the assay medium as it allowed for excellent growth of the organism. Higher inoculum concentrations (1-4×10^6 CFU/ml) and increased time of incubation (48 to 72 hours) were used to enable sufficient growth of the test strains.

[4] = system: Malassezia pachydermatis; assay: Checkerboard MIC/FICI of NCL812 and EDTA (Example 2); conditions: for MIC: Malassezia pachydermatis, read-out: MIC, compound alone; for MIC, combination: EDTA + NCL812 combination; for FICI: NCL812 with EDTA
Source text: There is no recommended CLSI standard for M. pachydermatis. In the literature there are a number of papers which have developed MIC methodology for Malassezia species isolated from both humans and animals (ie both lipophilic and non-lipophilic species). In all papers the methodology has been altered from the original CLSI protocols in order to overcome four main problem areas involved in testing this yeast. • 1) Finding a suitable growth medium for Malassezia, especially the lipophilic species. […] The method followed was originally developed by Eichenberg et al. (2003) (mSAB broth microdilution method). The mSAB method was devised to follow as closely as possible the CLSI guidelines whilst still allowing for the distinct biochemical and growth requirements of M. pachydermatis. […] Briefly, 150 μl of SDB+1% TW80 was added to each well of a 96-well microtiter plate, which was used as the checkerboard challenge plate. Next, a two-fold serial dilution of NCL 812 (robenidine) working solution was performed along the abscissa (column 3 to 12 only) (1/2 to 1/1024 dilution ratio). […] Experiments were performed in duplicate and repeated twice. […] The FICI values were interpreted as follows (Hamoud et al., 2015).

[5] = system: Candida albicans; assay: as above; conditions: isolate Candida albicans
[6] = Example 6 isolates, summary in words

Question: Which results are given for Cc1ccc(/C=N/Nc2cc(N/N=C/c3ccc(C)cc3)nc(N)n2)cc1 [NCL195]?
Answer: MIC ([1]; C. albicans SA3): 2 µg/mL (≈ 5.56 µM); MIC ([1]; Candida albicans ATCC 90028): 2 µg/mL (≈ 5.56 µM); MIC ([2]; Cryptococcus neoformans SA1): 2 µg/mL (≈ 5.56 µM); MIC ([2]; Cryptococcus neoformans SA2): 2 µg/mL (≈ 5.56 µM); activity against all isolates [2, 6]: active; relative potency among tested compounds [2, 6]: most potent activity; MIC ([2]; human clinical isolate C. neoformans serotype A/D hybrid): 2 µg/mL (≈ 5.56 µM); MIC ([2]; human clinical isolate C. neoformans var grubii 16-90050434): 2 µg/mL (≈ 5.56 µM); MIC ([2]; human clinical isolate C. neoformans var grubii 17-90028233): 2 µg/mL (≈ 5.56 µM); MIC ([2]; human clinical isolate C. neoformans var grubii 17-93996464): 2 µg/mL (≈ 5.56 µM); MIC ([2]; human clinical isolate C. neoformans var grubii 17-93996964): 2 µg/mL (≈ 5.56 µM); MIC ([3]; Malassezia isolate M1-017): 1 µg/mL (≈ 2.78 µM); MIC ([3]; Malassezia isolate M-018): 1 µg/mL (≈ 2.78 µM); MIC ([3]; Malassezia isolate M-020): 1 µg/mL (≈ 2.78 µM); MIC ([3]; Malassezia isolate M-036): 1 µg/mL (≈ 2.78 µM); MIC ([3]; Malassezia isolate M-037): 1 µg/mL (≈ 2.78 µM); MIC ([3]; Malassezia isolate M-038): 1 µg/mL (≈ 2.78 µM); MIC ([3]; Malassezia isolate M-040): 0.5 µg/mL and 1 µg/mL; MIC ([3]; Malassezia isolate M-052): 1 µg/mL (≈ 2.78 µM); MIC ([3]; Malassezia isolate M-055): 1 µg/mL (≈ 2.78 µM); MIC ([3]; Malassezia isolate M-060): 1 µg/mL (≈ 2.78 µM); MIC ([3]; Malassezia isolate M-066): 1 µg/mL (≈ 2.78 µM); MIC ([3]; Malassezia isolate M-067): 0.5 µg/mL and 1 µg/mL; MIC ([3]; Malassezia isolate M-069): 1 µg/mL (≈ 2.78 µM); activity against all 13 isolates of Malassezia pachydermatis [3]: highly active

Question: N=C(N/N=C/c1ccc(Cl)cc1)N/N=C/c1ccc(Cl)cc1 [NCL812, robenidine, reference compound] was tested. Which MIC ([1]; ATCC90028, Candida albicans ATCC 90028, read-out: MIC) did it give?
Answer: The MIC was 2 µg/mL (≈ 5.98 µM).

Question: And the MIC ([1]; Candida albicans, C. albicans SA3, read-out: MIC)?
Answer: The MIC was 2 µg/mL (≈ 5.98 µM).

Question: And the MIC ([2]; Cryptococcus neoformans, Cryptococcus neoformans SA1, read-out: MIC)?
Answer: The MIC was 2 µg/mL (≈ 5.98 µM).

Question: And the MIC ([2]; Cryptococcus neoformans, Cryptococcus neoformans SA2, read-out: MIC)?
Answer: Its MIC is 2 µg/mL (≈ 5.98 µM).

Question: What about the MIC ([2]; Cryptococcus neoformans, human clinical isolate C. neoformans serotype A/D hybrid, read-out: MIC) of the same compound?
Answer: The MIC was 16 µg/mL (≈ 47.9 µM).

Question: What about the MIC ([2]; Cryptococcus neoformans, human clinical isolate C. neoformans var grubii 16-90050434, read-out: MIC) of the same compound?
Answer: The MIC was 32 µg/mL (≈ 95.7 µM).

Question: And the MIC ([2]; Cryptococcus neoformans, human clinical isolate C. neoformans var grubii 17-90028233, read-out: MIC)?
Answer: Its MIC is 32 µg/mL (≈ 95.7 µM).

Question: What about the MIC ([2]; Cryptococcus neoformans, human clinical isolate C. neoformans var grubii 17-93996464, read-out: MIC) of the same compound?
Answer: The MIC was 16 µg/mL (≈ 47.9 µM).

Question: And the “activity against all isolates” value [2, 6]?
Answer: The value was “active”.

Question: And the “activity against one or more isolates of Candida albicans and Cryptococcus neoformans” value ([2]; summary in words)?
Answer: Its value is “highly active”.

Question: And the MIC ([3]; Malassezia isolate M-036)?
Answer: The MIC was 2 µg/mL (≈ 5.98 µM).

Question: And the MIC ([3]; Malassezia isolate M-066)?
Answer: The MIC was 2 µg/mL (≈ 5.98 µM).

Question: And the MIC ([3]; Malassezia pachydermatis, Malassezia isolate M1-017, read-out: MIC)?
Answer: The MIC was 2 µg/mL (≈ 5.98 µM).

Question: And the MIC ([3]; Malassezia pachydermatis, Malassezia isolate M-018, read-out: MIC)?
Answer: The MIC was 2 µg/mL (≈ 5.98 µM).

Question: And the MIC ([3]; Malassezia pachydermatis, Malassezia isolate M-020, read-out: MIC)?
Answer: Its MIC is 2 µg/mL (≈ 5.98 µM).

Question: And the MIC ([3]; Malassezia pachydermatis, Malassezia isolate M-036, read-out: MIC)?
Answer: Its MIC is 1 µg/mL (≈ 2.99 µM).

Question: And the MIC ([3]; Malassezia pachydermatis, Malassezia isolate M-037, read-out: MIC)?
Answer: The MIC was 2 µg/mL (≈ 5.98 µM).

Question: What about the MIC ([3]; Malassezia pachydermatis, Malassezia isolate M-038, read-out: MIC) of the same compound?
Answer: The MIC was 1 µg/mL (≈ 2.99 µM).

Question: And the MIC ([3]; Malassezia pachydermatis, Malassezia isolate M-040, read-out: MIC)?
Answer: Its MIC is 2 µg/mL (≈ 5.98 µM).

Question: What about the MIC ([3]; Malassezia pachydermatis, Malassezia isolate M-052, read-out: MIC) of the same compound?
Answer: Its MIC is 1 µg/mL (≈ 2.99 µM).

Question: What about the MIC ([3]; Malassezia pachydermatis, Malassezia isolate M-055, read-out: MIC) of the same compound?
Answer: The MIC was 1 µg/mL (≈ 2.99 µM).

Question: And the MIC ([3]; Malassezia pachydermatis, Malassezia isolate M-060, read-out: MIC)?
Answer: Its MIC is 1 µg/mL (≈ 2.99 µM).

Question: And the MIC ([3]; Malassezia pachydermatis, Malassezia isolate M-066, read-out: MIC)?
Answer: The MIC was 1 µg/mL (≈ 2.99 µM).

Question: What about the MIC ([3]; Malassezia pachydermatis, Malassezia isolate M-067, read-out: MIC) of the same compound?
Answer: The MIC was 1 µg/mL (≈ 2.99 µM).

Question: And the MIC ([3]; Malassezia pachydermatis, Malassezia isolate M-069, read-out: MIC)?
Answer: Its MIC is 2 µg/mL (≈ 5.98 µM).

Question: What about the “activity against all 13 isolates of Malassezia pachydermatis” value [3] of the same compound?
Answer: The value was “highly active”.

Question: And the MIC ([4]; isolate ML18)?
Answer: Its MIC is 1 µg/mL.

Question: And the MIC ([4]; isolate ML19)?
Answer: Its MIC is 2 µg/mL.

Question: And the MIC ([4]; isolate ML20)?
Answer: Its MIC is 1 µg/mL.

Question: And the MIC ([4]; isolate ML21)?
Answer: The MIC was 2 µg/mL.

Question: And the MIC ([4]; isolate ML36)?
Answer: Its MIC is 2 µg/mL.

Question: And the MIC ([4]; isolate ML41)?
Answer: The MIC was 2 µg/mL.

Question: And the MIC ([4]; isolate ML42)?
Answer: The MIC was 2 µg/mL.

Question: What about the MIC ([4]; isolate ML43) of the same compound?
Answer: The MIC was 4 µg/mL.

Question: And the MIC ([4]; isolate ML44)?
Answer: The MIC was 1 µg/mL.

Question: And the MIC ([4]; isolate ML69)?
Answer: Its MIC is 2 µg/mL.

Question: What about the “interaction of NCL812 and EDTA (FICI interpretation)” value ([4]; each of the 11 isolates (10 Malassezia, 1 Candida albicans)) of the same compound?
Answer: Its value is “Synergy (FICI ≤ 0.5)”.

Question: What about the “MIC, combination” value ([4]; isolate ML18) of the same compound?
Answer: Its value is 0.5 µg/mL.

Question: What about the FICI ([4]; isolate ML18) of the same compound?
Answer: Its FICI is 1.

Question: What about the “MIC, combination” value ([4]; isolate ML19) of the same compound?
Answer: The value was 1 µg/mL.

Question: What about the FICI ([4]; isolate ML19) of the same compound?
Answer: Its FICI is 1.

Question: What about the “MIC, combination” value ([4]; isolate ML20) of the same compound?
Answer: The value was 0.5 µg/mL.

Question: What about the FICI ([4]; isolate ML20) of the same compound?
Answer: The FICI was 1.

Question: What about the “MIC, combination” value ([4]; isolate ML21) of the same compound?
Answer: The value was 1 µg/mL.

Question: What about the FICI ([4]; isolate ML21) of the same compound?
Answer: The FICI was 1.

Question: What about the “MIC, combination” value ([4]; isolate ML36) of the same compound?
Answer: Its value is 1 µg/mL.

Question: What about the FICI ([4]; isolate ML36) of the same compound?
Answer: Its FICI is 1.

Question: What about the “MIC, combination” value ([4]; isolate ML41) of the same compound?
Answer: Its value is 0.5 µg/mL.

Question: What about the FICI ([4]; isolate ML41) of the same compound?
Answer: The FICI was 0.75.

Question: And the “MIC, combination” value ([4]; isolate ML42)?
Answer: Its value is 1 µg/mL.

Question: And the FICI ([4]; isolate ML42)?
Answer: The FICI was 1.

Question: What about the “MIC, combination” value ([4]; isolate ML43) of the same compound?
Answer: Its value is 2 µg/mL.

Question: And the FICI ([4]; isolate ML43)?
Answer: The FICI was 1.

Question: And the “MIC, combination” value ([4]; isolate ML44)?
Answer: Its value is 0.5 µg/mL.

Question: And the FICI ([4]; isolate ML44)?
Answer: The FICI was 1.

Question: And the “MIC, combination” value ([4]; isolate ML69)?
Answer: The value was 1 µg/mL.

Question: What about the FICI ([4]; isolate ML69) of the same compound?
Answer: The FICI was 1.

Question: What about the “MIC, combination” value ([5]; EDTA + NCL812 combination) of the same compound?
Answer: Its value is 1 µg/mL.

Question: What about the FICI ([5]; NCL812 with EDTA) of the same compound?
Answer: Its FICI is 0.75.

Question: What about the MIC ([5]; read-out: MIC, compound alone) of the same compound?
Answer: Its MIC is 4 µg/mL.
